Experimental data taken from ChEMBL document CHEMBL3508693 (2016).

Key:
[1] = % aliskiren hemifumarate (0-168h) recovered as M3 in urine following single intravenous dose of [14C] aliskiren hemifumarate at 1 mg.Kg-1 level in marmoset; format: ADME, organism-based, Callithrix jacchus; details: in vivo
[2] = % aliskiren hemifumarate (0-168h) recovered as M3 in urine following single oral dose of [14C] aliskiren hemifumarate at 3 mg.Kg-1 level in marmoset; format: ADME, organism-based, Callithrix jacchus; details: in vivo
[3] = % aliskiren hemifumarate (0-72h) recovered as M3 in faeces following single intravenous dose of [14C] aliskiren hemifumarate at 1 mg.Kg-1 level in marmoset; format: ADME, organism-based, Callithrix jacchus, Feces; details: in vivo
[4] = % aliskiren hemifumarate (0-72h) recovered as M3 in faeces following single oral dose of [14C] aliskiren hemifumarate at 3 mg.Kg-1 level in marmoset; format: ADME, organism-based, Callithrix jacchus, Feces; details: in vivo
[5] = % aliskiren hemifumarate recovered as M3 in urine following single oral dose of 300 mg [14C]SPP100 studied in healthy men; format: ADME, organism-based; details: human, in vivo, at 300 mg
[6] = % aliskiren hemifumarate recovered as M3 in faeces following single oral dose of 300 mg [14C]SPP100 studied in healthy men; format: ADME, organism-based, Feces; details: human, in vivo, at 300 mg
[7] = % aliskiren hemifumarate recovered as M3 in urine and faeces following single oral dose of 300 mg [14C]SPP100 studied in healthy men; format: ADME, organism-based, Urine/Feces; details: human, in vivo, at 300 mg
[8] = % aliskiren recovered as M3 in bile following single intravenous administration of 10 mg.Kg-1 [14C] aliskiren hemifumarate in male rat; format: ADME, organism-based, HAN:WIST(SPF); details: in vivo
[9] = % aliskiren recovered as M3 in hydrolysed following single intravenous administration of 10 mg.Kg-1 [14C] aliskiren hemifumarate in male rat; format: ADME, organism-based, HAN:WIST(SPF), Bile; details: in vivo
[10] = % aliskiren recovered as M3 in urine following single intravenous administration of 10 mg.Kg-1 [14C] aliskiren hemifumarate in male rat; format: ADME, organism-based, HAN:WIST(SPF); details: in vivo
[11] = % aliskiren recovered as M3 of receiver rat following duodenal infusion of radioactivity through bile from donor rat treated with single intravenous administration of 10 mg.Kg-1 [14C] aliskiren hemifumarate; format: ADME, organism-based, HAN:WIST(SPF); details: in vivo
[12] = % of radioactivity recovered as M3 in plasma following oral administration of [14C] aliskiren hemifumarate at 100 mg.Kg-1 level in rat; format: ADME, organism-based, Albino HAN:WIST; details: in vivo
[13] = % of radioactivity recovered as M3 in urine following oral administration of [14C] aliskiren hemifumarate at 100 mg.Kg-1 level in rat; format: ADME, organism-based, Albino HAN:WIST; details: in vivo
[14] = % of radioactivity recovered as M3 in faeces following oral administration of [14C] aliskiren hemifumarate at 100 mg.Kg-1 level in rat; format: ADME, organism-based, Albino HAN:WIST, Feces; details: in vivo
[15] = % of radioactivity recovered as M3 in plasma following intravenous administration of [14C] aliskiren hemifumarate at 10 mg.Kg-1 level in rat; format: ADME, organism-based, Albino HAN:WIST; details: in vivo
[16] = % of radioactivity recovered as M3 in urine following intravenous administration of [14C] aliskiren hemifumarate at 10 mg.Kg-1 level in rat; format: ADME, organism-based, Albino HAN:WIST; details: in vivo
[17] = % of radioactivity recovered as M3 in faeces following intravenous administration of [14C] aliskiren hemifumarate at 10 mg.Kg-1 level in rat; format: ADME, organism-based, Albino HAN:WIST, Feces; details: in vivo
[18] = % aliskiren hemifumarate (0-168h) recovered as M4 in urine following single intravenous dose of [14C] aliskiren hemifumarate at 1 mg.Kg-1 level in marmoset; format: ADME, organism-based, Callithrix jacchus; details: in vivo
[19] = % aliskiren hemifumarate (0-168h) recovered as M4 in urine following single oral dose of [14C] aliskiren hemifumarate at 3 mg.Kg-1 level in marmoset; format: ADME, organism-based, Callithrix jacchus; details: in vivo
[20] = % aliskiren hemifumarate (0-72h) recovered as M4 in faeces following single intravenous dose of [14C] aliskiren hemifumarate at 1 mg.Kg-1 level in marmoset; format: ADME, organism-based, Callithrix jacchus, Feces; details: in vivo
[21] = % aliskiren hemifumarate (0-72h) recovered as M4 in faeces following single oral dose of [14C] aliskiren hemifumarate at 3 mg.Kg-1 level in marmoset; format: ADME, organism-based, Callithrix jacchus, Feces; details: in vivo
[22] = % aliskiren hemifumarate recovered as M4 in urine following single oral dose of 300 mg [14C]SPP100 studied in healthy men; format: ADME, organism-based; details: human, in vivo, at 300 mg
[23] = % aliskiren hemifumarate recovered as M4 in faeces following single oral dose of 300 mg [14C]SPP100 studied in healthy men; format: ADME, organism-based, Feces; details: human, in vivo
[24] = % aliskiren hemifumarate recovered as M4 in urine and faeces following single oral dose of 300 mg [14C]SPP100 studied in healthy men; format: ADME, organism-based, Urine/Feces; details: human, in vivo, at 300 mg
[25] = % aliskiren recovered as M4 in bile following single intravenous administration of 10 mg.Kg-1 [14C] aliskiren hemifumarate in male rat; format: ADME, organism-based, HAN:WIST(SPF); details: in vivo
[26] = % aliskiren recovered as M4 in hydrolysed following single intravenous administration of 10 mg.Kg-1 [14C] aliskiren hemifumarate in male rat; format: ADME, organism-based, HAN:WIST(SPF), Bile; details: in vivo
[27] = % aliskiren recovered as M4 in urine following single intravenous administration of 10 mg.Kg-1 [14C] aliskiren hemifumarate in male rat; format: ADME, organism-based, HAN:WIST(SPF); details: in vivo
[28] = % aliskiren recovered as M4 of receiver rat following duodenal infusion of radioactivity through bile from donor rat treated with single intravenous administration of 10 mg.Kg-1 [14C] aliskiren hemifumarate; format: ADME, organism-based, HAN:WIST(SPF); details: in vivo
[29] = % of radioactivity recovered as M4 in plasma following oral administration of [14C] aliskiren hemifumarate at 100 mg.Kg-1 level in rat; format: ADME, organism-based, Albino HAN:WIST; details: in vivo
[30] = % of radioactivity recovered as M4 in urine following oral administration of [14C] aliskiren hemifumarate at 100 mg.Kg-1 level in rat; format: ADME, organism-based, Albino HAN:WIST; details: in vivo
[31] = % of radioactivity recovered as M4 in faeces following oral administration of [14C] aliskiren hemifumarate at 100 mg.Kg-1 level in rat; format: ADME, organism-based, Albino HAN:WIST, Feces; details: in vivo
[32] = % of radioactivity recovered as M4 in plasma following intravenous administration of [14C] aliskiren hemifumarate at 10 mg.Kg-1 level in rat; format: ADME, organism-based, Albino HAN:WIST; details: in vivo
[33] = % of radioactivity recovered as M4 in urine following intravenous administration of [14C] aliskiren hemifumarate at 10 mg.Kg-1 level in rat; format: ADME, organism-based, Albino HAN:WIST; details: in vivo
[34] = % of radioactivity recovered as M4 in faeces following intravenous administration of [14C] aliskiren hemifumarate at 10 mg.Kg-1 level in rat; format: ADME, organism-based, Albino HAN:WIST, Feces; details: in vivo

SMILES: COc1ccc(C[C@@H](C[C@H](N)[C@@H](O)C[C@H](C(=O)NCC(C)(C)C(N)=O)C(C)C)C(C)C)cc1OCCCO
- Compound recovery [1]: 0.4%
- Compound recovery [2]: 0.1%
- Compound recovery [3]: 17%
- Compound recovery [4]: 2%
- Compound recovery [5]: < 0.1%
- Compound recovery [6]: 0.6%
- Compound recovery [7]: < 0.6%
- Compound recovery [8]: 15.9%
- Compound recovery [9]: 15.5%
- Compound recovery [10]: 4.7%
- Compound recovery [11]: 15.2%
- Compound recovery [12]: <= 2%
- Compound recovery [13]: <= 2%
- Compound recovery [14]: <= 2%
- Compound recovery [15]: OUTCOME = Not detected or not investigated
- Compound recovery [16]: <= 2%
- Compound recovery [17]: > 2%

SMILES: COc1ccc(C[C@@H](C[C@H](N)[C@@H](O)C[C@H](C(=O)NCC(C)(C)C(N)=O)C(C)C)C(C)C)cc1O
- Compound recovery [18]: 0.1%
- Compound recovery [19]: 0%
- Compound recovery [20]: 2%
- Compound recovery [21]: 1%
- Compound recovery [22]: < 0.1%
- Compound recovery [23]: OUTCOME = Not detected
- Compound recovery [24]: < 0.1%
- Compound recovery [25]: 1.4%
- Compound recovery [26]: 4.5%
- Compound recovery [27]: 0.9%
- Compound recovery [28]: OUTCOME = Not detected
- Compound recovery [29]: <= 2%
- Compound recovery [30]: <= 2%
- Compound recovery [31]: <= 2%
- Compound recovery [32]: OUTCOME = Not detected or not investigated
- Compound recovery [33]: OUTCOME = Not detected or not investigated
- Compound recovery [34]: OUTCOME = Not detected or not investigated
